Converted amounts (≈) assume the structure as drawn.
What was measured:
Assay in all cases: ≥ marks a high value that may be exact or a test limit, other limits are often not marked, values filed in µg/mL are converted to µM
[1] = system: Acinetobacter baumannii CCARM 12005
[2] = system: Acinetobacter baumannii CCARM 12035
[3] = system: Acinetobacter baumannii CCARM 12036
[4] = system: Acinetobacter baumannii CCARM 12037
[5] = system: Bacillus subtilis KCTC 1021
[6] = system: Bacillus subtilis KCTC 1022
[7] = system: Bacillus subtilis KCTC 3068
[8] = system: Escherichia coli CCARM 1229
[9] = system: Escherichia coli CCARM 1238
[10] = system: Escherichia coli KCTC 1682
[11] = system: Escherichia coli KCTC 2571
[12] = system: Escherichia coli KCTC 2593
[13] = system: Pseudomonas aeruginosa CCARM 2002
[14] = system: Pseudomonas aeruginosa CCARM 2003
[15] = system: Pseudomonas aeruginosa CCARM 2095
[16] = system: Pseudomonas aeruginosa CCARM 2163
[17] = system: Pseudomonas aeruginosa KCTC 1637
[18] = system: Pseudomonas aeruginosa KCTC 2004
[19] = system: Pseudomonas aeruginosa KCTC 2513
[20] = system: Salmonella typhimurium CCARM 8003
[21] = system: Salmonella typhimurium CCARM 8007
[22] = system: Salmonella typhimurium CCARM 8009
[23] = system: Salmonella typhimurium KCTC 1926
[24] = system: Staphylococcus aureus CCARM 3089
[25] = system: Staphylococcus aureus CCARM 3090
[26] = system: Staphylococcus aureus CCARM 3108
[27] = system: Staphylococcus aureus CCARM 3114
[28] = system: Staphylococcus aureus CCARM 3126
[29] = system: Staphylococcus aureus KCTC 1621
[30] = system: Staphylococcus aureus KCTC 1916
[31] = system: Staphylococcus aureus KCTC 3881
[32] = system: Staphylococcus epidermidis KCTC 1917

Row | Compound | MIC [1] [µM] | MIC [2] [µM] | MIC [3] [µM] | MIC [4] [µM] | MIC [5] [µM] | MIC [6] [µM] | MIC [7] [µM] | MIC [8] [µM] | MIC [9] [µM] | MIC [10] [µM] | MIC [11] [µM] | MIC [12] [µM] | MIC [13] [µM] | MIC [14] [µM] | MIC [15] [µM] | MIC [16] [µM] | MIC [17] [µM] | MIC [18] [µM] | MIC [19] [µM] | MIC [20] [µM] | further results
1 | CC[C@H](C)[C@H](NC(=O)CNC(=O)[C@H](CCCN=C(N)N)NC(=O)[C@H](Cc1ccccc1)NC(=O)[C@@H](NC(=O)[C@H](Cc1cnc[nH]1)NC(=O)[C@H](Cc1cnc[nH]1)NC(=O)[C@H](C)NC(=O)[C@@H](N)Cc1ccccc1)[C@@H](C)CC)C(=O)N[C@H](C(=O)N[C@@H](Cc1cnc[nH]1)C(=O)N[C@H](C(=O)NCC(=O)N[C@@H](CCCCN)C(=O)N[C@H](C(=O)N[C@H](C(=O)N[C@@H](Cc1cnc[nH]1)C(=O)N[C@@H](CCCN=C(N)N)C(=O)N[C@@H](CC(C)C)C(=O)N[C@H](C(=O)N[C@H](C(=O)NCC(=O)O)[C@@H](C)O)C(C)C)[C@@H](C)CC)[C@@H](C)O)C(C)C)C(C)C [FAHHIFRGIVHVGKTIHRLVTG] | 4 (≈ 9.98 µg/mL) | 4 (≈ 9.98 µg/mL) | 4 (≈ 9.98 µg/mL) | 4 (≈ 9.98 µg/mL) | 8 (≈ 20 µg/mL) | 1 (≈ 2.5 µg/mL) | 4 (≈ 9.98 µg/mL) | 16 (≈ 39.9 µg/mL) | 16 (≈ 39.9 µg/mL) | 2 (≈ 4.99 µg/mL) | 2 (≈ 4.99 µg/mL) | 2 (≈ 4.99 µg/mL) | 4 (≈ 9.98 µg/mL) | 4 (≈ 9.98 µg/mL) | 4 (≈ 9.98 µg/mL) | 4 (≈ 9.98 µg/mL) | 4 (≈ 9.98 µg/mL) | 8 (≈ 20 µg/mL) | 8 (≈ 20 µg/mL) | ≥ 32 | MIC [21]: 16 µM (≈ 39.9 µg/mL); MIC [22]: 16 µM (≈ 39.9 µg/mL); MIC [23]: 16 µM (≈ 39.9 µg/mL); MIC [24]: 16 µM (≈ 39.9 µg/mL); MIC [25]: 16 µM (≈ 39.9 µg/mL); MIC [26]: 16 µM (≈ 39.9 µg/mL); MIC [27]: 16 µM (≈ 39.9 µg/mL); MIC [28]: 16 µM (≈ 39.9 µg/mL); MIC [29]: 4 µM (≈ 9.98 µg/mL); MIC [30]: 1 µM (≈ 2.5 µg/mL); MIC [31]: 2 µM (≈ 4.99 µg/mL); MIC [32]: 2 µM (≈ 4.99 µg/mL)
2 | CC[C@H](C)[C@H](NC(=O)CNC(=O)[C@H](CCCN=C(N)N)NC(=O)[C@H](Cc1ccccc1)NC(=O)[C@@H](NC(=O)[C@H](Cc1cnc[nH]1)NC(=O)[C@H](Cc1cnc[nH]1)NC(=O)[C@H](CCCCN)NC(=O)[C@@H](N)Cc1ccccc1)[C@@H](C)CC)C(=O)N[C@@H](CCCCN)C(=O)N[C@@H](Cc1cnc[nH]1)C(=O)N[C@H](C(=O)NCC(=O)N[C@@H](CCCCN)C(=O)N[C@H](C(=O)N[C@H](C(=O)N[C@@H](Cc1cnc[nH]1)C(=O)N[C@@H](CCCN=C(N)N)C(=O)N[C@@H](CC(C)C)C(=O)N[C@H](C(=O)N[C@H](C(=O)NCC(=O)O)[C@@H](C)O)C(C)C)[C@@H](C)CC)[C@@H](C)O)C(C)C [FKHHIFRGIKHVGKTIHRLVTG] | 2 (≈ 5.16 µg/mL) | 2 (≈ 5.16 µg/mL) | 2 (≈ 5.16 µg/mL) | 2 (≈ 5.16 µg/mL) | 8 (≈ 20.7 µg/mL) | 4 (≈ 10.3 µg/mL) | 2 (≈ 5.16 µg/mL) | 8 (≈ 20.7 µg/mL) | 8 (≈ 20.7 µg/mL) | 1 (≈ 2.58 µg/mL) | 4 (≈ 10.3 µg/mL) | 4 (≈ 10.3 µg/mL) | 2 (≈ 5.16 µg/mL) | 2 (≈ 5.16 µg/mL) | 2 (≈ 5.16 µg/mL) | 2 (≈ 5.16 µg/mL) | 1 (≈ 2.58 µg/mL) | 8 (≈ 20.7 µg/mL) | 8 (≈ 20.7 µg/mL) | 16 (≈ 41.3 µg/mL) | MIC [21]: 8 µM (≈ 20.7 µg/mL); MIC [22]: 8 µM (≈ 20.7 µg/mL); MIC [23]: 2 µM (≈ 5.16 µg/mL); MIC [24]: 8 µM (≈ 20.7 µg/mL); MIC [25]: 8 µM (≈ 20.7 µg/mL); MIC [26]: 8 µM (≈ 20.7 µg/mL); MIC [27]: 8 µM (≈ 20.7 µg/mL); MIC [28]: 8 µM (≈ 20.7 µg/mL); MIC [29]: 2 µM (≈ 5.16 µg/mL); MIC [30]: 4 µM (≈ 10.3 µg/mL); MIC [31]: 4 µM (≈ 10.3 µg/mL); MIC [32]: 4 µM (≈ 10.3 µg/mL)

— DBAASP
